Laboratory results: article PMC5218480 (PLoS ONE, 2017)

Test system: MV-4-11 cells
Experiment: Gene expression microarray analysis (Affymetrix PrimeView) and GSEA
Assay type: cell-based, human
Design: RFU PODN (11730768_x_at) / Fold change /veh PODN (11730768_x_at) / RFU LINC00158 (11744669_a_at) / Fold change /veh LINC00158 (11744669_a_at) / RFU DUSP10 (11751237_a_at) / Fold change /veh DUSP10 (11751237_a_at) / RFU ID3 (11757404_x_at) / Fold change /veh ID3 (11757404_x_at) / RFU PLEKHG5 (11737974_s_at) / Fold change /veh PLEKHG5 (11737974_s_at) / RFU LRRC4B (11730491_at) / Fold change /veh LRRC4B (11730491_at) / RFU GIMAP4 (11747438_a_at) / Fold change /veh GIMAP4 (11747438_a_at) / RFU KRT8 (11758183_x_at) / Fold change /veh KRT8 (11758183_x_at) / RFU CNN1 (11734310_a_at) / Fold change /veh CNN1 (11734310_a_at) / RFU VPS37D (11726825_at) / Fold change /veh VPS37D (11726825_at) / RFU C10orf10 (11716522_x_at) / Fold change /veh C10orf10 (11716522_x_at) / RFU KIR2DL2 /// KIR2DL4 /// KIR2DL5A /// KIR2DL5B /// KIR2DS1 /// KIR2DS2 /// KIR2DS3 /// KIR2DS4 /// KIR3DL3 /// KIR3DL3 /// KIR3DS1 (11738374_at) / Fold change /veh KIR2DL2 /// KIR2DL4 /// KIR2DL5A /// KIR2DL5B /// KIR2DS1 /// KIR2DS2 /// KIR2DS3 /// KIR2DS4 /// KIR3DL3 /// KIR3DL3 /// KIR3DS1 (11738374_at) / RFU C1QL1 (11718748_at) / Fold change /veh C1QL1 (11718748_at) / RFU TMPRSS4 (11747572_a_at) / Fold change /veh TMPRSS4 (11747572_a_at) / RFU HAMP (11756126_x_at) / Fold change /veh HAMP (11756126_x_at) / RFU RNFT2 (11725882_a_at) / Fold change /veh RNFT2 (11725882_a_at) / RFU NR4A2 (11747474_a_at) / Fold change /veh NR4A2 (11747474_a_at) / RFU ABCC12 (11746883_a_at) / Fold change /veh ABCC12 (11746883_a_at) / RFU TMEM136 (11760407_x_at) / Fold change /veh TMEM136 (11760407_x_at) / RFU CLDN22 /// WWC2 (11732394_at) / Fold change /veh CLDN22 /// WWC2 (11732394_at) / RFU HLA-DPB1 (11760878_x_at) / Fold change /veh HLA-DPB1 (11760878_x_at) / RFU SPINT1 (11716480_a_at) / Fold change /veh SPINT1 (11716480_a_at) / RFU GAP43 (11754022_s_at) / Fold change /veh GAP43 (11754022_s_at) / RFU A4GNT (11735810_at) / Fold change /veh A4GNT (11735810_at) / RFU PRB3 (11715151_x_at) / Fold change /veh PRB3 (11715151_x_at) / RFU TUBB4B (11761932_at) / Fold change /veh TUBB4B (11761932_at) / RFU CAPN14 (11732068_a_at) / Fold change /veh CAPN14 (11732068_a_at) / RFU TMCC2 (11721928_a_at) / Fold change /veh TMCC2 (11721928_a_at) / RFU IRGQ (11745062_a_at) / Fold change /veh IRGQ (11745062_a_at) / RFU FAM174B (11720279_a_at) / Fold change /veh FAM174B (11720279_a_at) / RFU TMPRSS4 (11748680_a_at) / Fold change /veh TMPRSS4 (11748680_a_at) / RFU FAM212B (11763350_a_at) / Fold change /veh FAM212B (11763350_a_at) / RFU PLEKHG5 (11743358_a_at) / Fold change /veh PLEKHG5 (11743358_a_at) / RFU ZSCAN30 (11745921_a_at) / Fold change /veh ZSCAN30 (11745921_a_at) / RFU CMKLR1 (11741424_a_at) / Fold change /veh CMKLR1 (11741424_a_at) / RFU LOC101060620 /// MAPK8IP1 (11723275_at) / Fold change /veh LOC101060620 /// MAPK8IP1 (11723275_at) / RFU SPTSSB (11747773_x_at) / Fold change /veh SPTSSB (11747773_x_at) / RFU PRSS12 (11739890_at) / Fold change /veh PRSS12 (11739890_at) / RFU BIN1 (11741810_x_at) / Fold change /veh BIN1 (11741810_x_at) / RFU WNT11 (11732464_a_at) / Fold change /veh WNT11 (11732464_a_at) / RFU C10orf10 (11716521_a_at) / Fold change /veh C10orf10 (11716521_a_at) / RFU C5orf56 (11738089_at) / Fold change /veh C5orf56 (11738089_at) / RFU CYB561 (11721691_x_at) / Fold change /veh CYB561 (11721691_x_at) / RFU ANKRD19P (11752326_a_at) / Fold change /veh ANKRD19P (11752326_a_at) / RFU OR2T12 /// OR2T33 /// OR2T8 (11738714_s_at) / Fold change /veh OR2T12 /// OR2T33 /// OR2T8 (11738714_s_at) / RFU VCAN (11748164_a_at) / Fold change /veh VCAN (11748164_a_at) / RFU JSRP1 (11732532_at) / Fold change /veh JSRP1 (11732532_at) / RFU KRTAP10-11 (11738290_x_at) / Fold change /veh KRTAP10-11 (11738290_x_at) / RFU MYO3A (11730013_a_at) / Fold change /veh MYO3A (11730013_a_at) / RFU EBF3 (11725865_a_at) / Fold change /veh EBF3 (11725865_a_at) / RFU CAMK2N1 (11719241_x_at) / Fold change /veh CAMK2N1 (11719241_x_at) / RFU C5orf56 (11738088_a_at) / Fold change /veh C5orf56 (11738088_a_at) / RFU OLFML3 (11715873_a_at) / Fold change /veh OLFML3 (11715873_a_at) / RFU LOC100653217 /// NTM (11731650_a_at) / Fold change /veh LOC100653217 /// NTM (11731650_a_at) / RFU MAPK11 (11762145_a_at) / Fold change /veh MAPK11 (11762145_a_at) / RFU FIZ1 (11724087_x_at) / Fold change /veh FIZ1 (11724087_x_at) / RFU OASL (11726364_x_at) / Fold change /veh OASL (11726364_x_at) / RFU SOX15 (11748057_x_at) / Fold change /veh SOX15 (11748057_x_at) / RFU CD79A (11719716_a_at) / Fold change /veh CD79A (11719716_a_at) / RFU HIST1H1D (11736915_at) / Fold change /veh HIST1H1D (11736915_at) / RFU CASKIN2 (11723855_a_at) / Fold change /veh CASKIN2 (11723855_a_at) / RFU LOC730098 (11760151_x_at) / Fold change /veh LOC730098 (11760151_x_at) / RFU OR4N2 (11742367_at) / Fold change /veh OR4N2 (11742367_at) / RFU PRRT2 (11749266_a_at) / Fold change /veh PRRT2 (11749266_a_at) / RFU SNX32 (11753110_a_at) / Fold change /veh SNX32 (11753110_a_at) / RFU CDHR5 (11726645_a_at) / Fold change /veh CDHR5 (11726645_a_at) / RFU RCAN1 (11760418_a_at) / Fold change /veh RCAN1 (11760418_a_at) / RFU FAM167A (11723789_a_at) / Fold change /veh FAM167A (11723789_a_at) / RFU FAM26E (11764081_at) / Fold change /veh FAM26E (11764081_at) / RFU ISYNA1 (11749810_s_at) / Fold change /veh ISYNA1 (11749810_s_at) / RFU ACY1 (11761880_at) / Fold change /veh ACY1 (11761880_at) / RFU 11764098_at / Fold change /veh 11764098_at / RFU SAMD14 (11745864_x_at) / Fold change /veh SAMD14 (11745864_x_at) / RFU NPB (11741838_a_at) / Fold change /veh NPB (11741838_a_at) / RFU TMPRSS6 (11731388_a_at) / Fold change /veh TMPRSS6 (11731388_a_at) / RFU KRTAP10-2 (11738614_at) / Fold change /veh KRTAP10-2 (11738614_at) / RFU ARHGAP8 /// PRR5-ARHGAP8 (11727945_x_at) / Fold change /veh ARHGAP8 /// PRR5-ARHGAP8 (11727945_x_at) / RFU KRTAP5-7 /// NADSYN1 (11734609_at) / Fold change /veh KRTAP5-7 /// NADSYN1 (11734609_at) / RFU RASL12 (11751679_a_at) / Fold change /veh RASL12 (11751679_a_at) / RFU CDKN2B (11736163_a_at) / Fold change /veh CDKN2B (11736163_a_at) / RFU PRF1 (11729649_at) / Fold change /veh PRF1 (11729649_at) / RFU, ZNF638 /// ZNF638-IT1 / Fold change vs veh, ZNF638 /// ZNF638-IT1 / RFU, PANK3 / Fold change vs veh, PANK3 / RFU, SH3YL1 / Fold change vs veh, SH3YL1 / RFU, ZEB2 / Fold change vs veh, ZEB2 / RFU, NRIP1 / Fold change vs veh, NRIP1 / RFU, PTTG1IP / Fold change vs veh, PTTG1IP / RFU, CAPN2 / Fold change vs veh, CAPN2 / RFU, MED14 / Fold change vs veh, MED14 / RFU, SNORA58 / Fold change vs veh, SNORA58 / RFU, C1orf63 / Fold change vs veh, C1orf63 / RFU, LRRFIP1 / Fold change vs veh, LRRFIP1 / RFU, NDUFAF7 / Fold change vs veh, NDUFAF7 / RFU, SLC12A2 / Fold change vs veh, SLC12A2 / RFU, IBTK / Fold change vs veh, IBTK / RFU, ESF1 / Fold change vs veh, ESF1 / Fold change vs veh, TMEM50B / RFU, TAOK1 / Fold change vs veh, TAOK1 / RFU, ACBD3 / Fold change vs veh, ACBD3 / RFU, TMA16 / Fold change vs veh, TMA16 / RFU, RWDD3 / Fold change vs veh, RWDD3 / RFU, BCAT1 / Fold change vs veh, BCAT1 / RFU, EDEM3 / Fold change vs veh, EDEM3 / RFU, TMEM33 / Fold change vs veh, TMEM33 / RFU, WDR75 / Fold change vs veh, WDR75 / RFU, AHCTF1 / Fold change vs veh, AHCTF1 / RFU, TFRC / Fold change vs veh, TFRC / RFU, ZDHHC17 / Fold change vs veh, ZDHHC17 / RFU, NOM1 / Fold change vs veh, NOM1 / RFU, ARL8B / Fold change vs veh, ARL8B / RFU, ZBTB11 / Fold change vs veh, ZBTB11 / RFU, TAMM41 / Fold change vs veh, TAMM41 / RFU, KIAA1704 /// LOC100996395 / Fold change vs veh, KIAA1704 /// LOC100996395 / RFU, ING1 / Fold change vs veh, ING1 / RFU, TRMT61B / Fold change vs veh, TRMT61B / RFU, FUBP3 / Fold change vs veh, FUBP3 / RFU, TP53 / Fold change vs veh, TP53 / RFU, TNKS2 / Fold change vs veh, TNKS2 / RFU, ZFP14 / Fold change vs veh, ZFP14 / RFU, ACTR2 / Fold change vs veh, ACTR2 / RFU, PPP3R1 / Fold change vs veh, PPP3R1 / RFU, PIK3R1 / Fold change vs veh, PIK3R1 / RFU, HNRNPA1 / Fold change vs veh, HNRNPA1 / RFU, RNF170 / Fold change vs veh, RNF170 / RFU, ZNF28 / Fold change vs veh, ZNF28 / RFU, RNGTT / Fold change vs veh, RNGTT / RFU, OGT / Fold change vs veh, OGT / RFU, BRD1 / Fold change vs veh, BRD1 / RFU, MARS / Fold change vs veh, MARS / RFU, ZNF655 / Fold change vs veh, ZNF655 / RFU, FAHD1 / Fold change vs veh, FAHD1 / RFU, BDP1 / Fold change vs veh, BDP1 / RFU, LRRCC1 / Fold change vs veh, LRRCC1 / RFU, ARID1A / Fold change vs veh, ARID1A / RFU, ZNF146 / Fold change vs veh, ZNF146 / RFU, ZNF330 / Fold change vs veh, ZNF330 / RFU, GPN3 / Fold change vs veh, GPN3 / RFU, C9orf123 / Fold change vs veh, C9orf123 / RFU, N4BP2L2 / Fold change vs veh, N4BP2L2 / RFU, ARFIP1 / Fold change vs veh, ARFIP1 / RFU, FAM179B / Fold change vs veh, FAM179B / RFU, BCL10 / Fold change vs veh, BCL10 / RFU, UHRF1BP1L / Fold change vs veh, UHRF1BP1L / RFU, BET1 / Fold change vs veh, BET1 / RFU, CNOT2 / Fold change vs veh, CNOT2 / RFU, ZNF268 / Fold change vs veh, ZNF268 / Fold change vs veh, ZNF507 / RFU, DGCR2 / Fold change vs veh, DGCR2 / RFU, WDSUB1 / Fold change vs veh, WDSUB1 / Fold change vs veh, HSP90B1 /// MIR3652 / RFU, ADSS / Fold change vs veh, ADSS / RFU, GK / Fold change vs veh, GK / RFU, ZNF148 / Fold change vs veh, ZNF148 / RFU, TAF9 / Fold change vs veh, TAF9 / RFU, SLC1A5 / Fold change vs veh, SLC1A5 / RFU, SLMO2 / Fold change vs veh, SLMO2 / RFU, ABCC4 / Fold change vs veh, ABCC4 / RFU, LOC101060439 /// RAP1B / Fold change vs veh, LOC101060439 /// RAP1B / RFU, RFX7 / Fold change vs veh, RFX7 / RFU, GTPBP10 / Fold change vs veh, GTPBP10 / RFU, CNEP1R1 / Fold change vs veh, CNEP1R1 / RFU, BIVM-ERCC5 /// ERCC5 / Fold change vs veh, BIVM-ERCC5 /// ERCC5 / RFU, ILF3 / Fold change vs veh, ILF3 / RFU 11762660_at / Fold change /veh 11762660_at / RFU VCAN (11757783_s_at) / Fold change /veh VCAN (11757783_s_at) / RFU DDX43 (11728927_at) / Fold change /veh DDX43 (11728927_at) / RFU KRT8 (11758188_x_at) / Fold change /veh KRT8 (11758188_x_at) / RFU NKD1 (11759106_at) / Fold change /veh NKD1 (11759106_at) / RFU SRD5A1 (11742802_a_at) / Fold change /veh SRD5A1 (11742802_a_at) / RFU TPSAB1 /// TPSB2 (11721975_s_at) / Fold change /veh TPSAB1 /// TPSB2 (11721975_s_at) / RFU GSTM3 (11746129_a_at) / Fold change /veh GSTM3 (11746129_a_at) / RFU IL23R (11737362_x_at) / Fold change /veh IL23R (11737362_x_at) / RFU TMEM51 (11727254_a_at) / Fold change /veh TMEM51 (11727254_a_at) / RFU PIWIL2 (11732686_x_at) / Fold change /veh PIWIL2 (11732686_x_at) / RFU ORM1 (11744905_x_at) / Fold change /veh ORM1 (11744905_x_at) / RFU CCDC152 (11743942_at) / Fold change /veh CCDC152 (11743942_at) / RFU ECM1 (11717891_a_at) / Fold change /veh ECM1 (11717891_a_at) / RFU IL23R (11748794_a_at) / Fold change /veh IL23R (11748794_a_at) / RFU TNFAIP8L3 (11732012_x_at) / Fold change /veh TNFAIP8L3 (11732012_x_at) / RFU MBOAT4 (11741988_at) / Fold change /veh MBOAT4 (11741988_at) / RFU 11764193_at / Fold change /veh 11764193_at / RFU TMEM53 (11763286_at) / Fold change /veh TMEM53 (11763286_at) / RFU MAGEB2 (11727129_at) / Fold change /veh MAGEB2 (11727129_at) / RFU TMEM200A (11744735_a_at) / Fold change /veh TMEM200A (11744735_a_at) / RFU CCDC152 (11751479_a_at) / Fold change /veh CCDC152 (11751479_a_at) / RFU FAM211A (11726209_a_at) / Fold change /veh FAM211A (11726209_a_at) / RFU RGS16 (11746705_a_at) / Fold change /veh RGS16 (11746705_a_at) / RFU VCAN (11755009_s_at) / Fold change /veh VCAN (11755009_s_at) / RFU RHOB (11743442_s_at) / Fold change /veh RHOB (11743442_s_at) / RFU RGS16 (11720943_a_at) / Fold change /veh RGS16 (11720943_a_at) / RFU RGS16 (11720944_at) / Fold change /veh RGS16 (11720944_at) / RFU, VPS4B / Fold change vs veh, VPS4B / RFU, CREB1 / Fold change vs veh, CREB1 / RFU, DNAJC13 / Fold change vs veh, DNAJC13 / RFU, GNAQ / Fold change vs veh, GNAQ / RFU, CDK5R1 / Fold change vs veh, CDK5R1 / RFU, ZRANB3 / Fold change vs veh, ZRANB3 / RFU, CUL4A / Fold change vs veh, CUL4A / RFU, CCNY / Fold change vs veh, CCNY / RFU, UFL1 / Fold change vs veh, UFL1 / RFU, COG3 / Fold change vs veh, COG3 / RFU, DIAPH2 / Fold change vs veh, DIAPH2 / RFU, SKA2 / Fold change vs veh, SKA2 / RFU, AFF3 / Fold change vs veh, AFF3 / RFU, LMF1 / Fold change vs veh, LMF1 / RFU, IPO11 / Fold change vs veh, IPO11 / RFU, DFFB / Fold change vs veh, DFFB / RFU, FOXP1 / Fold change vs veh, FOXP1 / RFU, CARD8 / Fold change vs veh, CARD8 / RFU, STRN3 / Fold change vs veh, STRN3 / RFU, ADK / Fold change vs veh, ADK / RFU, RASSF2 / Fold change vs veh, RASSF2 / RFU, WIPF1 / Fold change vs veh, WIPF1 / RFU, LARP1B / Fold change vs veh, LARP1B / RFU, RASA1 / Fold change vs veh, RASA1 / RFU, RB1 / Fold change vs veh, RB1 / RFU, PPFIA1 / Fold change vs veh, PPFIA1 / RFU, MAT2A / Fold change vs veh, MAT2A / RFU, CCT5 / Fold change vs veh, CCT5 / RFU, WDR92 / Fold change vs veh, WDR92 / RFU, CUX1 / Fold change vs veh, CUX1 / RFU, TTC7A / Fold change vs veh, TTC7A / RFU, TMEM135 / Fold change vs veh, TMEM135 / RFU, DEPTOR / Fold change vs veh, DEPTOR / RFU, CPM / Fold change vs veh, CPM / RFU, DNAJB6 / Fold change vs veh, DNAJB6 / RFU, CACNA2D3 / Fold change vs veh, CACNA2D3 / RFU, DTX4 / Fold change vs veh, DTX4 / RFU, TFCP2 / Fold change vs veh, TFCP2 / RFU, GMCL1 /// GMCL1P1 / Fold change vs veh, GMCL1 /// GMCL1P1 / RFU, AEBP2 / Fold change vs veh, AEBP2 / RFU, SNHG1 /// SNORD22 /// SNORD25 /// SNORD26 /// SNORD27 /// SNORD28 /// SNORD29 /// SNORD31 / Fold change vs veh, SNHG1 /// SNORD22 /// SNORD25 /// SNORD26 /// SNORD27 /// SNORD28 /// SNORD29 /// SNORD31 / Fold change (Aza/veh), C12orf56 (ProbeSet 11735607_a_at) / Fold change (ACY-1035/veh), C12orf56 (ProbeSet 11735607_a_at) / Fold change (Aza/veh), FGFR1OP (ProbeSet 11751329_s_at) / Fold change (ACY-1035/veh), FGFR1OP (ProbeSet 11751329_s_at) / Fold change (Aza/veh), VPS36 (ProbeSet 11739960_a_at) / Fold change (ACY-1035/veh), VPS36 (ProbeSet 11739960_a_at) / RFU SYPL1 (11715823_x_at) / Fold change /veh SYPL1 (11715823_x_at) / RFU IGFBP7 (11715501_s_at) / Fold change /veh IGFBP7 (11715501_s_at) / RFU REEP3 (11722064_at) / Fold change /veh REEP3 (11722064_at) / RFU IGLL1 (11728026_x_at) / Fold change /veh IGLL1 (11728026_x_at): dose or concentration left out as unconfirmed
Conditions: MV-4-11 cells, 48 hours

In the case of `Nc1ccc(-c2cccs2)cc1NC(=O)c1ccc2c(c1)cc(C1CC1)n2CCN1CCOCC1` [ACY-1035], the “RFU SPTSSB (11747773_x_at)” value is reported as 31.07 RFU.
